Earlier results as cited in patent US20100135914A1, “AZEOTROPIC FUMIGANT COMPOSITIONS AND METHODS OF CONTROLLING PESTS” (priority 2008, published 2010).

How the values were obtained:
[1] = system: eggs of many moths and beetles; conditions: exposures of up to three days
[2] = system: post-embryonic stages of insects; conditions: in vivo

Row | Structure (SMILES) | dosage level toxic to maize weevil eggs (maize weevil; eggs, over 6 hours) [mg/L] | toxicity to life stages of the maize weevil (maize weevil; relatively short exposure periods and low temperatures) | concentration for complete kill of the egg stage [1] | toxicity to post-embryonic stages of insects [2]
1 | CI [Methyl iodide] | 2.16 | toxic to all life stages | – | –
2 | O=S(=O)(F)F [Sulfuryl fluoride] | – | – | over 50 mg/L | highly toxic
